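Grown in 96-well plates, cells were treated for 48 hours with each compound at five concentrations. Insufficient inhibition: endpoint recorded as highest concentration tested. Here, GI50 denotes the concentration required for 50% inhibition of growth. Definition used: TGI = concentration required for complete inhibition of growth.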
Experiments:
Test in all cases: NCI tumour cell line growth inhibition, 48 h
RXF-631 renal = system: RXF-631 renal
KM20L2 colon = system: KM20L2 colon
HOP-18 NSCLC = system: HOP-18 NSCLC
DMS 114 small cell lung = system: DMS 114 small cell lung
LXFL 529 NSCLC = system: LXFL 529 NSCLC
MCF7 breast = system: MCF7 breast
MDA-N = system: MDA-N
NCI/ADR-RES ovarian = system: NCI/ADR-RES ovarian
P388 leukemia = system: P388 leukemia
SN12K1 renal = system: SN12K1 renal
DU-145 prostate = system: DU-145 prostate
P388/ADR leukemia = system: P388/ADR leukemia

| SMILES | TGI (RXF-631 renal) [µM] | TGI (KM20L2 colon) [µM] | TGI (HOP-18 NSCLC) [µM] | TGI (DMS 114 small cell lung) [µM] | TGI (LXFL 529 NSCLC) [µM] | further results |
| --- | --- | --- | --- | --- | --- | --- |
| COc1cc(C(=O)C/C(CCCC(=O)Nc2ccccc2[N+](=O)[O-])=N/NC(=O)c2cc3ccccc3cc2O)ccc1O | > 100 | > 91.1 | > 100 |  |  |  |
| CC1=C(C)C(=O)c2c(cc3ccccn23)C1=O | 21.7 |  | 68.2 | 26.9 | 28.6 |  |
| CC1(C)C(=NNC(=O)C[N+](C)(C)C)C(C)(C)C1=NNC(=O)C[N+](C)(C)C | > 100 | > 100 | > 100 | > 100 | > 100 |  |
| CSc1ccc(C2OC(=O)c3ccccc32)c2ccccc12 (stereo unspecified) | > 100 | > 100 | > 100 | > 100 | > 100 |  |
| CCCCCCCCCCCC(=O)OCC1OC(n2cc(F)c(=O)[nH]c2=O)C(NC(=O)OCc2ccccc2)C(OC(=O)CCCCCCCCCCC)C1O (stereo unspecified) | > 100 | > 100 | > 100 | > 100 | > 100 |  |
| C#CCOCn1cnc2c(Cl)ncnc21 | > 100 |  | > 100 | > 100 | > 100 |  |
| Cc1ccc(N=Cc2ccc3c(c2)OCO3)cc1C | > 100 | > 100 | > 100 |  | > 100 |  |
| O=C(NCCCCCCNC(=O)n1cc(F)c(=O)[nH]c1=O)NCCCOCCOCCOCCOCCOCCOCCOCCOCCOCCOCCOCCOCCOCCOCCOCCOCCOCCOCCOCCOCCOCCCNC(=O)C(O)C(O)C(O)C(O)CO (stereo unspecified) |  | > 100 | > 100 | > 100 |  | TGI (MCF7 breast): > 62 µM; TGI (MDA-N): > 100 µM; TGI (NCI/ADR-RES ovarian): > 100 µM; TGI (P388 leukemia): > 100 µM; TGI (SN12K1 renal): > 100 µM; TGI (DU-145 prostate): > 100 µM; TGI (P388/ADR leukemia): > 100 µM |
| Nc1ccn(CCNCCn2cnc3nc(N)[nH]c(=O)c32)c(=O)n1 | > 100 | > 100 | > 100 | > 100 | > 100 |  |
| Cc1[nH]ccc2c1[nH]c1cc(=O)ccc12 | > 100 | > 100 | > 100 | > 100 | > 100 |  |
| COc1ccc(C2=Nc3ccccc3NC(=O)C2)cc1 | > 100 | > 100 | > 100 | 59.7 | > 100 |  |
| CCc1ccccc1NC(=O)C(=O)CC(=O)c1sc(Nc2ccccc2)nc1C | > 100 | > 100 | > 100 | > 100 | > 100 |  |
| Cc1cc(N(CCC#N)CCC#N)ccc1N=Nc1cccc(C(=O)O)c1 | > 100 |  | > 100 | > 100 | > 100 |  |
| CCOC(=O)COc1ccccc1/C=C1\CCC(CN(C)C)C1=O (stereo unspecified) | 34.4 | 30.2 | 37.9 | 24.2 | 6.36 | TGI (MCF7 breast): 19.8 µM; TGI (NCI/ADR-RES ovarian): > 44 µM; TGI (P388 leukemia): 1.54 µM; TGI (SN12K1 renal): 3.47 µM |
| C=CCC[CH2][Sn]([c]1ccccc1)([c]1ccccc1)[c]1ccccc1 | 3.53 | 3.36 | 4.51 |  | 2.63 | GI50 (RXF-631 renal): 1.85 µM; GI50 (KM20L2 colon): 1.83 µM; GI50 (HOP-18 NSCLC): 2.59 µM; GI50 (LXFL 529 NSCLC): 1.35 µM |
